The results in this text go back to ChEMBL document CHEMBL4406848, “Novel water soluble BODIPY compounds: Synthesis, photochemical, DNA interaction, topoisomerases inhibition and photodynamic activity properties” (Eur J Med Chem, 2019).

Molecules are shown by their SMILES. Calls of active or inactive are those of the source. The calls are words filed in the database; no cut-off is given here.

Test [1] is described as follows: Induction of singlet oxygen generation in TBS solution assessed as singlet oxygen quantum yield by measuring reduction in ADMA irradiated with 650 nanometer laser light. In kind it is functional.
Test [2] has as its system DNA. In words: Induction of Escherichia coli plasmid pBR322 DNA cleavage assessed as increase in nicked circular DNA at 6.25 to 50 uM in presence of light irradiation and incubated for 1 hr by agarose gel electrophoresis. In kind it is nucleic-acid assay.
Test [3] has as its system DNA. The test is described as follows: Induction of Escherichia coli plasmid pBR322 DNA cleavage assessed as decrease in supercoiled DNA at 6.25 to 50 uM in presence of light irradiation and incubated for 1 hr by agarose gel electrophoresis relative to control. It counts as nucleic-acid assay. Set-up: scale not given: the % may be the effect or the level left.
The target in test [4] is T1, DNA topoisomerase 1 (Homo sapiens) (UniProt P11387).
T1 sequence (whole entry): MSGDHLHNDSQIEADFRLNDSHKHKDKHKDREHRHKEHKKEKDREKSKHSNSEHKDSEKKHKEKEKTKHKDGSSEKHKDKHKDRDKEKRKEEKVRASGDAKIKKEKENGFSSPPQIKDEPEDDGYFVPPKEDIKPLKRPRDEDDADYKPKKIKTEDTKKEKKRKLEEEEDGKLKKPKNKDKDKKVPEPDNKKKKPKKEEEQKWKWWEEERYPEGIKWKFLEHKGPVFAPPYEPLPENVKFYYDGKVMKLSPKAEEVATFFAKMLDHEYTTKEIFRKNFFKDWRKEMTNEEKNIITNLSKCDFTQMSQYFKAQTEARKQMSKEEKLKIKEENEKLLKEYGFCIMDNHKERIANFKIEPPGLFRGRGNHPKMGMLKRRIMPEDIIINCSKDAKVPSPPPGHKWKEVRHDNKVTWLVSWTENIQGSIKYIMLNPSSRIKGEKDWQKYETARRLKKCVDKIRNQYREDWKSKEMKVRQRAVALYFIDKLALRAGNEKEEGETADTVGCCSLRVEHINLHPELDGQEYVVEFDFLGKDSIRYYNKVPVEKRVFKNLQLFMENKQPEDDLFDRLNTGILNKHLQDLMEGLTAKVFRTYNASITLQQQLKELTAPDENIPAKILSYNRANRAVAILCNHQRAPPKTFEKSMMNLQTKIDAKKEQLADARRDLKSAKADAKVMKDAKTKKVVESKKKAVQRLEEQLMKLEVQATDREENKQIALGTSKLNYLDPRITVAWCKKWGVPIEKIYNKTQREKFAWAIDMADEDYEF
In words: Inhibition of recombinant human topoisomerase 1 assessed as supercoiled pBR322 DNA at 12.5 uM incubated for 1 hr by ethidium bromide staining based agarose gel electrophoresis method relative to control. Set-up: scale not given: the % may be the effect or the level left.

Test [5] concerns the target T2, DNA topoisomerase II (Homo sapiens) (UniProt P11388+Q02880). The test is described as follows: Inhibition of recombinant human topoisomerase 2 assessed as supercoiled DNA at 12.5 uM incubated for 1 hr by ethidium bromide staining based agarose gel electrophoresis method relative to control. In kind it is protein assay. Also on record: scale not given: the % may be the effect or the level left.

The target of test [6] is T2, DNA topoisomerase II (Homo sapiens). The test is described as follows: Inhibition of recombinant human topoisomerase 2 assessed as supercoiled DNA at 25 uM incubated for 1 hr by ethidium bromide staining based agarose gel electrophoresis method relative to control. In kind it is protein assay. Set-up: scale not given: the % may be the effect or the level left.
For test [7], the system named is HCT-116. The test is described as follows: Phototoxicity against human HCT116 cells assessed as cell viability at 10 uM incubated for 24 hrs under 17.5 mW/cm2 light irradiation by MTT assay relative to control. In kind it is functional. Particulars: HCT-116, light or radiation study, read-out: Activity.
The test system of test [8] is HCT-116. In words: Phototoxicity against human HCT116 cells assessed as cell viability at 5 uM incubated for 24 hrs under 17.5 mW/cm2 light irradiation by MTT assay relative to control. In kind it is functional. Particulars: HCT-116, light or radiation study, read-out: Activity.
The subject of test [9] is HCT-116. In words: Phototoxicity against human HCT116 cells assessed as cell viability at 1 uM incubated for 24 hrs under 17.5 mW/cm2 light irradiation by MTT assay relative to control. In kind it is functional. To be noted: HCT-116, light or radiation study, read-out: Activity.
In test [10] the test system is HCT-116. In words: Induction of apoptosis in human HCT116 cells assessed as late apoptotic cells at 10 uM incubated for 24 hrs in presence of irradiation by annexin V FITC and propidium iodide based flow cytometry (reference value: 1.6 %). In kind it is functional.
The test system of test [11] is HCT-116. The test is described as follows: Induction of apoptosis in human HCT116 cells assessed as viable cells at 50 uM incubated for 24 hrs in presence of irradiation by annexin V FITC and propidium iodide based flow cytometry (reference value: 94.8 %). To be noted: HCT-116, light or radiation study, read-out: Activity. In kind it is functional.
For test [12], the system named is HCT-116. In words: Induction of apoptosis in human HCT116 cells assessed as early apoptotic cells at 50 uM incubated for 24 hrs in presence of irradiation by annexin V FITC and propidium iodide based flow cytometry (reference value: 3.4 %). In kind it is functional.
The test system of test [13] is HCT-116. In words: Induction of apoptosis in human HCT116 cells assessed as late apoptotic cells at 50 uM incubated for 24 hrs in presence of irradiation by annexin V FITC and propidium iodide based flow cytometry (reference value: 1.6 %). In kind it is functional.
Test [14] has as its system HCT-116. The test is described as follows: Induction of apoptosis in human HCT116 cells assessed as necrotic cells at 50 uM incubated for 24 hrs in presence of irradiation by annexin V FITC and propidium iodide based flow cytometry (reference value: 0.2 %). In kind it is functional.
Test [15] concerns the target T1, DNA topoisomerase 1 (Homo sapiens). In words: Inhibition of recombinant human topoisomerase 1 assessed as supercoiled pBR322 DNA at 50 uM incubated for 1 hr by ethidium bromide staining based agarose gel electrophoresis method relative to control. Also on record: scale not given: the % may be the effect or the level left.
The next test has as its system Calf thymus DNA. In words: Competitive binding affinity to calf thymus DNA assessed as binding constant in presence of ethidium bromide incubated for 10 mins by UV-visible spectrophotometry. In kind it is nucleic-acid assay. Particulars: Bos taurus.
Test [16] deals with DNA. In words: Induction of Escherichia coli plasmid pBR322 DNA cleavage assessed as increase in nicked circular DNA at 50 uM in presence of light irradiation and incubated for 1 hr by agarose gel electrophoresis. It counts as nucleic-acid assay.
For test [17], the system named is DNA. The test is described as follows: Induction of Escherichia coli plasmid pBR322 DNA cleavage assessed as decrease in supercoiled DNA at 50 uM in presence of light irradiation and incubated for 1 hr by agarose gel electrophoresis. In kind it is nucleic-acid assay.
Test [18] relates to DNA. The test is described as follows: Induction of Escherichia coli plasmid pBR322 DNA cleavage assessed as linear form at 50 uM irradiated with light and incubated for 1 hr by agarose gel electrophoresis. In kind it is nucleic-acid assay.
In test [19] the test system is DNA. In words: Induction of Escherichia coli plasmid pBR322 DNA cleavage assessed as increase in nicked circular DNA in presence of light irradiation and incubated for 1 hr by agarose gel electrophoresis. It counts as nucleic-acid assay.
The target of test [20] is T1, DNA topoisomerase 1 (Homo sapiens). In words: Inhibition of recombinant human topoisomerase 1 assessed as linear DNA at 50 uM incubated for 1 hr by ethidium bromide staining based agarose gel electrophoresis method relative to control.
Test [21] has as its system HCT-116. In words: Induction of apoptosis in human HCT116 cells assessed as viable cells at 5 uM incubated for 24 hrs in presence of irradiation by annexin V FITC and propidium iodide based flow cytometry (reference value: 94.8 %). In kind it is functional. Particulars: HCT-116, light or radiation study, read-out: Activity.
Test [22] has as its system HCT-116. In words: Induction of apoptosis in human HCT116 cells assessed as early apoptotic cells at 5 uM incubated for 24 hrs in presence of irradiation by annexin V FITC and propidium iodide based flow cytometry (reference value: 3.4 %). It counts as functional.
Test [23] relates to HCT-116. The test is described as follows: Induction of apoptosis in human HCT116 cells assessed as late apoptotic cells at 5 uM incubated for 24 hrs in presence of irradiation by annexin V FITC and propidium iodide based flow cytometry (reference value: 1.6 %). It counts as functional.
For test [24], the system named is HCT-116. In words: Induction of apoptosis in human HCT116 cells assessed as necrotic cells at 5 uM incubated for 24 hrs in presence of irradiation by annexin V FITC and propidium iodide based flow cytometry (reference value: 0.2 %). In kind it is functional.

In the case of `CC1=CC(/C=C/c2ccc(OCCCc3ccc[n+](C)c3)c(OCCCc3ccc[n+](C)c3)c2)=[N+]2C1=C(c1ccc(OCCCc3ccc[n+](C)c3)c(OCCCc3ccc[n+](C)c3)c1)c1c(C)cc(/C=C/c3ccc(OCCCc4ccc[n+](C)c4)c(OCCCc4ccc[n+](C)c4)c3)n1[B-]2(F)F.[I-].[I-].[I-].[I-].[I-].[I-]`, the Activity in test [1] was determined as 0.3; with DNA [3], 100%; in [4], 64.2%; in test [5], 77.5%; in test [6] it was 81.8%; with HCT-116 [10], 1%. Besides, the Activity in the test with HCT-116 [12] came out at 4.8%; in the test on HCT-116 [13], 1.4%; in the test on HCT-116 [14], 0.2%; in [15], 69.5%. For the same molecule, in the test on DNA [2], the result was Active. Moreover, the viability at 10 µM with HCT-116 [7] was found to be 99%. For the same molecule, the viability at 5 µM in the test on HCT-116 [8] was 100%. In the test with HCT-116 [9], the viability at 1 µM was 100%. In the test on HCT-116 [11], the viability at 50 µM stood at 93.7%.

On to `CC1=CC(/C=C/c2ccc(OCCCc3ccc[n+](C)c3)cc2)=[N+]2C1=C(c1ccc(OCCCc3ccc[n+](C)c3)cc1)c1c(C)cc(/C=C/c3ccc(OCCCc4ccc[n+](C)c4)cc3)n1[B-]2(F)F.[I-].[I-].[I-]`, for which the Activity in test [1] was 0.21; in the test with DNA [19], “Dose-dependent effect”; with HCT-116 [10], 32.5%; in the test with HCT-116 [22], 35.8%; with HCT-116 [23] it was 30.5%; with HCT-116 [24], 10.7%. The result with Calf thymus DNA, in the test on DNA [16], in the test on DNA [17] and in the test with DNA [18] was inactive. In test [20], the inhibition stood at 100%. The viability at 10 µM with HCT-116 [7] came out at 10%. Moreover, the viability at 5 µM in the test with HCT-116 [8] worked out at 25%; in the test with HCT-116 [21] it was 23%. Further, in the test on HCT-116 [9], the viability at 1 µM was 97%.
